Measured values from paper PMC5688144, “Assay interference and off-target liabilities of reported histone acetyltransferase inhibitors” (Nature Communications, 2017).
“Also recorded” adds a separate entry of the source. Like-named read-outs stand apart in the source and are kept apart here.

What was measured:
[1] = tested on: H3K27ac levels in HEK293T and MCF7 cells; assay: Cellular H3K27ac western blot; type: cell-based; conditions: 10 and 30 μM compound
Procedure: Cells were cultured in DMEM supplemented with 10% fetal bovine serum (Winsent), penicillin (100 U mL^−1), and streptomycin (100 µg mL^−1). Compounds dissolved in DMSO or matching DMSO-only controls were added to cells for indicated times. Compound effects in cells were determined as described[67] and are outlined below.
For western blot analyses, cells were lysed in lysis buffer (20 mM Tris–HCl, pH 8, 150 mM NaCl, 1 mM EDTA, 10 mM MgCl2, 0.5% Triton X-100 (v/v), 12.5 U mL^−1 benzonase (Sigma), complete EDTA-free protease inhibitor cocktail (Roche)). After 3 min incubation at RT, SDS was added to final 1% concentration (w/v). Total cell lysates were resolved in 4–12% Bis-Tris protein gels (Invitrogen) with MOPS buffer (Invitrogen) and transferred for 1.5 h (80 V) onto PVDF membrane (Millipore) in tris-glycine transfer buffer containing 20% methanol and 0.05% SDS. Blots were blocked for 1 h in blocking buffer (5% milk in 0.1% Tween 20/PBS) and incubated with respective primary antibodies: H3K27ac (1:1000, CST #8173), H3 (1:1000, Abcam #10799), p300 (1:2000, Bethyl #A300-358A), CBP (1:1000, Bethyl #A300-362A), actin (1:3000, Abcam #3280), α-tubulin (1:1000, 12G10 DHSB), and α-tubulin-K40ac (1:2000, Abcam #179484) in blocking buffer overnight at 4 °C. After five washes with 0.1% Tween 20/PBS, the blots were incubated with goat anti-rabbit IgG (IRDye 800-conjugated, LiCor #926-32211) and donkey anti-mouse IgG (IRDye 680-conjugated, LiCor #926-68072) antibodies (1:5000) in Odyssey Blocking Buffer (LiCor) for 1 h at RT and washed with 0.1% Tween 20/PBS. The signal was read on an Odyssey scanner (LiCor) at 800 and 700 nm. Representative uncropped images with molecular weight markers are provided (Supplementary Figs. 9, 12, 13).

p300/CBP = conditions: cited from earlier work; for IC50: original report, 27 (Supplementary References)
CBP = conditions: cited from earlier work; for IC50: original report, 22 (Supplementary References)
Tip60 = conditions: cited from earlier work; for IC50: original report, 24 (Supplementary References)
five tested HATs = assay: HAT selectivity panel with DTT (Reaction Biology); type: biochemical; conditions: 10 μM compound; DTT in reaction buffer
Procedure: Selectivity profiles vs. HATs, HDACs, SIRTs, HMTs, proteases, kinases, and phosphatases were performed by Reaction Biology Corporation (Malvern, PA; Fig. 3 and Supplementary Fig. 3). Percent activity was normalized to DMSO-only controls. Reference control compounds were included in each assay.
Relevant reaction procedures for each target class are briefly summarized (see reactionbiology.com for additional details). HATs: reaction buffer 50 mM Tris–HCl, pH 8.0, 50 mM NaCl, 0.1 mM EDTA, ± 1 mM DTT, 1 mM PMSF, 1% DMSO; substrate [^3H]-acetyl-CoA; reaction time 1 h; end-point measurement. HDACs: reaction buffer 50 mM Tris–HCl, pH 8.0, 137 mM NaCl, 2.7 mM KCl, 1 mM MgCl2, 1 mg mL^−1 BSA, 1% DMSO; fluorogenic substrate p53 residues 379–382 (RHKK(Ac)-AMC) (HDAC1/2/3/6/10), fluorogenic substrate p53 residues 379–382 (RHK(Ac)K(Ac)AMC) (HDAC8); fluorogenic substrate trifluoroacetyl lysine (HDAC4/5/7/9/11); pre-incubation included; reaction time 1–2 h; trichostatin A or TMP269 quencher; fluorescent readout λexcite = 360 nm, λemission = 460 nm; end-point measurement. SIRTs: reaction buffer 50 mM Tris–HCl, pH 8.0, 137 mM NaCl, 2.7 mM KCl, 1 mM MgCl2, 1 mg mL^−1 BSA, 1% DMSO; fluorogenic substrate p53 residues 379–382 (RHKK(Ac)-AMC) (SIRT1/2/3); fluorogenic substrate Ac-Lys(Succ)-AMC (SIRT5); substrate: 500 µM NAD^+; reaction time 2 h; nicotinamide quencher; fluorescent readout λexcite = 360 nm, λemission = 460 nm; end-point measurement (1.5 h development). HMTs: reaction buffer 50 mM Tris–HCl, pH 8.0, 0.01% Brij35, 1 mM EDTA, 1 mM DTT, 1 mM PMSF, 1% DMSO (EZH2); reaction buffer 50 mM Tris–HCl, pH 7.5, 5 mM EDTA, 0.01% Brij35, 5 mM DTT, 0.1 mM PMSF, 5% glycerol, 1% DMSO; 50 mM Tris–HCl, pH 8.5, 5 mM MgCl2, 50 mM NaCl, 0.01 Brij35, 1 mM DTT, 1% DMSO (G9a); methyl donor 1 μM S-Adenosyl-L-[methyl-^3H]-methionine; substrate 5 μM histone proteins or 0.05 mg mL^−1 nucleosomes; pre-incubation time 10–15 min; reaction time 0.5–1 h; end-point measurement. Caspases: reaction buffer 50 mM HEPES, pH 7.4, 1 M citrate, 100 mM NaCl, 0.01% CHAPS, 0.1 mM EDTA, 10 mM DTT; fluorogenic peptide substrate; pre-incubation time 10 min; reaction time 2 h; time-course measurement. Kinases: reaction buffer 20 mM HEPES, pH 7.5, 10 mM MgCl2, 1 mM EGTA, 0.02% Brij35, 0.02 mg mL^−1 BSA, 0.1 mM Na3VO4, 2 mM DTT, 1% DMSO; substrate [^33P]-ATP; reaction time 2 h; end-point measurement.

MYST2 = conditions: cited from earlier work
Rtt109 = conditions: cited from earlier work
HEK293T and MCF7 cells = assay: Membrane permeability (SYTOX green uptake); type: cell-based; conditions: for membrane permeability: Sytox green dead-cell dye uptake
Procedure: For cell growth analyses, cells were seeded in 96-well plates, treated with compounds for the indicated times, and monitored over time in a live cell Incucyte™ ZOOM imager (Essen Biosciences). To label apoptotic and dead cells, caspase 3/7 activatable DEVD recognition motif NucView™ 488 DNA intercalating dye (1:1000 dilution, Essen Biosciences) and SYTOX™ green nucleic acid stain (1:1000 dilution, Invitrogen) were used respectively, following manufacturer instructions.

[2] = @ 100 µM, 20 (Supplementary References)
[3] = @ 25 µM, ref 13 (Supplementary References)

Question: For CCCCCCCCCCCCCCCc1cccc(O)c1C(=O)O [Compound 14, Anacardic acid], which “cellular H3K27ac levels” value [1] is on record?
Answer: Its value is “did not perturb”.

Question: What about the IC50 (p300/CBP) of the same compound?
Answer: The IC50 was 8.5 µM.

Question: With O=C(O[C@@H]1Cc2c(O)cc(O)cc2O[C@@H]1c1cc(O)c(O)c(O)c1)c1cc(O)c(O)c(O)c1 [Compound 10, (-)-Epigallocatechin gallate] as the compound, how does the IC50 (CBP) read?
Answer: Its IC50 is 50 µM.

Question: And the IC50 (Tip60)?
Answer: The IC50 was 70 µM.

Question: Which IC50 (CBP) does the source give for Cc1cc2c(C(C)C)c(O)c(O)c(C=O)c2c(O)c1-c1c(C)cc2c(C(C)C)c(O)c(O)c(C=O)c2c1O [Compound 16, Gossypol] here?
Answer: Its IC50 is roughly 25 µM.

Question: And the “% inhibition, Tip60” value (Tip60; [2])?
Answer: The value was less than 10%.

Question: For COc1ccc(/C(Cl)=C(/C=O)c2ccc(OC)cc2)cc1 [Compound 18, Windorphen], which “activity vs. the five tested HATs” value (five tested HATs) is on record?
Answer: Its value is “minimal activity”.

Question: What about the IC50 (CBP) of the same compound?
Answer: Its IC50 is 51.3 µM.

Question: What about the IC50 (MYST2; original report, ref 22 (Supplementary References)) of the same compound?
Answer: Its IC50 is greater than 100 µM.

Question: With CCCCCCCc1ccc(CCc2cccc(O)c2C(=O)O)cc1 [Compound 15, MG 149] as the compound, how does the “% inhibition, p300/CBP” value (p300/CBP; @ 200 µM, ref 19 (Supplementary References)) read?
Answer: The value was 30%.

Question: What about the IC50 (Tip60) of the same compound?
Answer: The IC50 was 74 µM.

Question: Which “activity vs. the five tested HATs” value (five tested HATs) does the source give for CC1=NN(c2ccc(C(=O)O)cc2)C(=O)/C1=C/c1ccc(-c2cc(C)c(C)cc2[N+](=O)[O-])o1 [Compound 1, C646] here?
Answer: The value was “potent inhibition of at least one HAT”.

Question: And the “cellular H3K27ac levels” value [1]?
Answer: The value was “decreased”.

Question: And the “% inhibition, Rtt109” value (Rtt109; @ 10 µM, ref 5 (Supplementary References))?
Answer: Its value is less than 10%.

Question: Which results are given for CCCC1(c2ccccc2)NC(=O)N(CC(=O)N(C)Cc2c(F)cccc2Cl)C1=O (stereo not drawn) [Compound 21, N-[(2-chloro-6-fluorophenyl)methyl]-2-(2,5-dioxo-4-phenyl-4-propylimidazolidin-1-yl)-N-methylacetamide]?
Answer: % inhibition, p300/CBP (p300/CBP; @ 100 µM, ref 25 (Supplementary References)): < 25%; IC50 (Rtt109; original report, ref 25 (Supplementary References)): 0.056 µM

Question: With Garcinol [Compound 13] as the compound, how does the “activity vs. the five tested HATs” value (five tested HATs) read?
Answer: Its value is “potent inhibition of at least one HAT”.

Question: What about the IC50 (p300/CBP) of the same compound?
Answer: The IC50 was 5 µM.

Question: With O=c1c2cccnc2sn1Cc1ccc(C(F)(F)F)cc1 [Compound 3, PU141] as the compound, how does the “activity vs. the five tested HATs” value (five tested HATs) read?
Answer: The value was “minimal activity”.

Question: For Cc1cc(O)cc(C)c1C=C1C(=O)N(Cc2ccccc2)C(=O)N(Cc2ccccc2)C1=O [Compound 4, EML425], which “activity vs. the five tested HATs” value (five tested HATs) is on record?
Answer: Its value is “potent inhibition of at least one HAT”.

Question: And the “cellular H3K27ac levels” value [1]?
Answer: The value was “did not perturb”.

Question: And the IC50 (CBP)?
Answer: The IC50 was 1.1 µM.

Question: With Cl.Cl.O=C(O)Cn1nnc(-c2ccc(CN(CCCCOc3ccc(CN4CCCC4)cc3)CCc3ccccc3)cc2)n1 [Compound 20, TH1834] as the compound, how does the IC50 (Tip60) read?
Answer: The IC50 was roughly 500 µM.

Question: For C=C1C(=O)O[C@H](CCC)[C@H]1C(=O)O [Compound 6, MB-3], which IC50 (CBP) is on record?
Answer: The IC50 was 500 µM.

Question: Which “cytotoxicity by membrane integrity studies” value (HEK293T and MCF7 cells; 30 µM compound, MCF7 cells) does the source give for Plumbagin [Compound 8] here?
Answer: Its value is “cytotoxic”.

Question: What about the membrane permeability (HEK293T and MCF7 cells) of the same compound?
Answer: Its membrane permeability is “increase; also recorded: dose-dependent increases”.

Question: With O=C1/C(=C/c2ccc(O)c(Br)c2)CCC/C1=C\c1ccc(O)c(Br)c1 [Compound 12, HAT inhibitor II] as the compound, how does the “activity vs. the five tested HATs” value (five tested HATs) read?
Answer: Its value is “potent inhibition of at least one HAT”.

Question: And the membrane permeability (HEK293T and MCF7 cells)?
Answer: The membrane permeability was “increase; also recorded: dose-dependent increases”.

Question: What about the IC50 (p300/CBP) of the same compound?
Answer: The IC50 was 5 µM.

Question: For COc1ccc(S(=O)(=O)ON=C2C=C(C)C(=O)C(C)=C2)cc1 [Compound 5, L002], which “cellular H3K27ac levels” value [1] is on record?
Answer: Its value is “decreased”.

Question: What about the “% inhibition, CBP” value (CBP; @ 100 µM, ref 9 (Supplementary References)) of the same compound?
Answer: Its value is 32%.

Question: And the “% inhibition, Tip60” value (Tip60; [2])?
Answer: Its value is 2%.

Question: What about the “% inhibition, MYST2” value (MYST2; @ 100 µM, HotSpot, ref 9 (Supplementary References)) of the same compound?
Answer: Its value is 1%.

Question: Which “% inhibition, p300/CBP” value (p300/CBP; [3]) does the source give for CCCCCCCCCCCC1=C(O)C(=O)C=C(O)C1=O [Compound 9, Embelin] here?
Answer: Its value is 25%.

Question: What about the “% inhibition, Tip60” value (Tip60; [3]) of the same compound?
Answer: Its value is 25%.
